The text below walks through data of patent publication US11865098B1, “Methods and compositions for treating excessive sleepiness” (Axsome Malta Ltd., priority 2017, dated 2024).

In assay [1] the test system is adult patients with OSA and ES. In words: SF-36v2 health-related quality of life, 12-week parallel study in OSA. Format: in vivo, human. To be noted: week 12. As for the experimental part: (§1) This was a 12-week, double-blind, placebo-controlled, parallel-design study. Patients were randomized (1:1:2:2:2) to APC 37.5 mg, 75 mg, 150 mg, or 300 mg, or placebo for 12 weeks, and were stratified by adherence or nonadherence with primary OSA therapy.
The SF-36 v2 consists of 2 summary scales (Physical Component Summary and Mental Component Summary) and 8 specific health status domains (Physical Function, Role Physical, Bodily Pain, General Health, Vitality, Social Functioning, Role Emotional, Mental Health) (Ware Jr et al., User's Manual for the SF-36v2™ Health Survey (2nd ed). QualityMetric Incorporated (Lincoln, RI); 2007). The EQ-5D-5L consists of 5 questions/dimensions (Mobility, Self-care, Usual Activities, Pain/Discomfort, and Anxiety/Depression) that have 5 response levels each (no problems, slight problems, moderate problems, severe problems, and extreme problems/unable to do) that are used to derive an overall EQ-5D-5L index score (0=death, 1=perfect health), and a health status visual analog scale (VAS) that is anchored at 0 with “the worst health you can imagine” and at 100 with “the best health you can imagine.” (The EuroQol Group. EQ-5D-5L User Guide. Version 2.1. April 2015. www.eurogol.org/fileadmin/user_upload/Documenten/PDF/Folders_Flyers/EQ-5D-5L_UserGuide_2015.pdf)
(§2) Efficacy analyses were based on the modified intent-to-treat (mITT) population; there was no multiplicity adjustment for the SF-36 v2 or EQ-5D-5L. SF-36 v2 scores were scaled from 0 to 100 (higher scores on all scales represent better health), transformed to norm-based scores using US general-population data from SF-36 Manuals (Ware Jr et al., User's Manual for the SF-36v2™ Health Survey (2nd ed.). QualityMetric Incorporated (Lincoln, RI); 2007), and were analyzed using a mixed-effect model with repeated measures (MMRM); and baseline value of the efficacy endpoint was used to determine differences in changes from baseline. EQ-5D-5L VAS and index-score data were analyzed using an MMRM model. Safety and tolerability were assessed based on treatment-emergent adverse events (TEAEs), vital signs, electrocardiogram test, physical exams, and laboratory tests.

Assay [2] relates to adult patients with OSA and ES. The assay can be described thus: EQ-5D-5L, 12-week parallel study in OSA. Format: in vivo, human. To be noted: week 12. As for the experimental part: as §1
The SF-36 v2 consists of 2 summary scales (Physical Component Summary and Mental Component Summary) and 8 specific health status domains (Physical Function, Role Physical, Bodily Pain, General Health, Vitality, Social Functioning, Role Emotional, Mental Health) (Ware Jr et al., User's Manual for the SF-36v2™ Health Survey (2nd ed). QualityMetric Incorporated (Lincoln, RI); 2007). […]
as §2, with “Safety and tolerability were assessed based on treatment-emergent adverse events (TEAEs), vital signs, electrocardiogram test, physical exams, and laboratory tests.” left out

For the compound `NC(=O)OC[C@H](N)Cc1ccccc1` [JZP-110, (R)-2-amino-3-phenylpropyl carbamate], the “SF-36v2 Role Physical, General Health, Social Functioning, Role Emotional vs placebo” value in assay [1] (150 mg) is “significantly greater changes from baseline relative to placebo”. Further, the “SF-36v2 Role Physical and Vitality domains and Physical Component Summary Scale vs placebo” value in assay [1] (300 mg) is “significantly greater improvements relative to placebo”. Also, in assay [1] (37.5, 75, 150 mg similar), the “SF-36v2 Mental Component Summary scores vs placebo” value was “only APC 150 mg reaching statistical significance”. Moreover, the “SF-36v2 Vitality domain, response vs MCID” value in assay [1] (75, 150, and 300 mg) is recorded as “exceeded the MCID”. Besides, in assay [1] (150 and 300 mg), the “SF-36v2 Physical Component Summary Scale, increase vs placebo” value is reported as “statistically significant” and the “SF-36v2 Vitality domain vs placebo” value is on record as “statistically significant improvements relative to placebo”. Further, the “SF-36v2 Physical and Mental Component Summary changes vs MCID” value in assay [1] was “did not exceed the minimal clinically important difference”. For the same compound, the “EQ-5D-5L index value, effect” value in assay [2] is “no significant effects”. Moreover, the “EQ-5D VAS, effect vs placebo” value in assay [2] (appeared dose dependent) was “not significantly different from placebo”.
